In patent US20170081724A1, “METHOD AND KITS FOR DETERMINING SENSITIVITY TO CANCER TREATMENT” (Dana-Farber Cancer Institute, Inc., priority 2014, published 2017):

System: ERCC2-deficient fibroblast cell line (GM08207) expressing GFP, WT ERCC2 or mutant ERCC2
Test: Cisplatin sensitivity assay (CellTiter-Glo survival, 120 hours)
Assay type: cell-based, human
Method: The expression plasmids harboring WT ERCC2, GFP (negative control), or mutant ERCC2s were expanded in E. coli TOP10 cells (Invitrogen) and purified using an anion exchange kit (Qiagen). Lentiviruses were propagated in 293T cells by cotransfection of the expression plasmid with plasmids encoding viral packaging and envelope proteins. Unless otherwise noted, all human cell lines were cultured in Dulbecco's Modified Eagle's Medium (Invitrogen) supplemented with 10% fetal bovine serum (Sigma) and 1% L-glutamine and grown at 37° C. and 5% CO2. The 293T cell supernatants containing virus were collected after 48 hours, filtered twice (0.45 μm syringe filter, Millipore), then added directly to growing cultures of an SV40-transformed pseudodiploid ERCC2-deficient fibroblast cell line derived from an XP patient of genetic complementation group D (GM08207; Coriell Institute). Polybrene® (Sigma) was added to a final concentration of 8 μg/ml to increase the efficiency of infection. […]
Cells were transferred to 96-well plates at a density of 500 cells per well. […] After 120 hours, CellTiter-Glo reagent (Promega) was added to the wells and the plates were scanned using a luminescence microplate reader (BioTek). […] IC50 concentrations were calculated using a four parameter sigmoidal model and plots were generated using Prism (GraphPad). […]

N.N.[Cl][Pt][Cl] [cisplatin]
cisplatin IC50 (WT ERCC2 complemented cell line compared with ERCC2-deficient parent cell line, P=0.0003, ANOVA): significantly higher
cisplatin IC50 (each mutant ERCC2 cell line (five mutants) compared with parent ERCC2-deficient cell line): not significantly different
